Experimental data published in the supplement of paper PMC10477900.

Assays:
[1] = tested on: HCT116; assay: viability inhibition vs untreated; higher = more cytotoxic; details: 72 h
[2] = tested on: HCT116; details: 72 h
Description: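 HCT116 control and MTA1-KO (CRISPR) HCT116 cells were seeded in 384-well plates (800 cells/well), treated 16 h later with 237 metabolism-related anticancer drugs at five doses (10 uM, 2 uM, 400 nM, 80 nM, 16 nM) for 72 h, two replicates; viability by CCK8. Values are % inhibition of viability relative to untreated cells, plus fitted IC50.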

SMILES	viability inhibition ([1]; genotype: MTA1-KO, 16 nM) [%]	viability inhibition ([1]; genotype: MTA1-KO, 80 nM) [%]	viability inhibition ([1]; genotype: MTA1-KO, 400 nM) [%]	viability inhibition ([1]; genotype: MTA1-KO, 2000 nM) [%]	viability inhibition ([1]; genotype: MTA1-KO, 10000 nM) [%]	viability inhibition ([1]; genotype: control, 16 nM) [%]	viability inhibition ([1]; genotype: control, 80 nM) [%]	viability inhibition ([1]; genotype: control, 400 nM) [%]	viability inhibition ([1]; genotype: control, 2000 nM) [%]	viability inhibition ([1]; genotype: control, 10000 nM) [%]	IC50 ([2]; genotype: MTA1-KO) [µM]	IC50 ([2]; genotype: control) [µM]
O=c1oc2c(O)c(O)cc3c(=O)oc4c(O)c(O)cc1c4c23 [Ellagic acid]	-9.03	-12.1	-9.22	-2.14	-6.22	-17.2	-19	-17.4	-13.6	-11.3	> 10	> 10
CC(C)(O)CNc1nc(Nc2ccnc(C(F)(F)F)c2)nc(-c2cccc(C(F)(F)F)n2)n1 [Enasidenib]	-26	-20.5	-17.3	-19.3	-24.8	-12.3	-12.7	-4.75	-20.9	-15.6	> 10	> 10
Cc1cc(-n2cccc2)c(S(C)(=O)=O)cc1C(=O)N=C(N)N [Eniporide]	-5.44	3.61	2.87	16.5	60.9	1.06	-2.91	-4.47	3.58	8.84	6.22	> 10
NS(=O)(=O)NCCNc1nonc1C(=Nc1ccc(F)c(Br)c1)NO [Epacadostat]	17.9	-8.61	-7.79	-6.79	6.59	-9.21	-6.3	-14.3	-5.67	-5.46	> 10	> 10
COc1ccc2[nH]c([S@@+]([O-])Cc3ncc(C)c(OC)c3C)nc2c1 [Esomeprazole Magnesium]	2.7	2.87	3.11	1.54	3.86	16.3	11.1	18	11.9	21.2	> 10	> 10
COc1ccc2[nH]c([S@@+]([O-])Cc3ncc(C)c(OC)c3C)nc2c1 [Esomeprazole Sodium]	3.92	2.7	7.98	6.88	10.1	27	8.16	-3.32	4.21	12	> 10	> 10
CO[C@H]1C[C@@H]2CC[C@@H](C)[C@@](O)(O2)C(=O)C(=O)N2CCCC[C@H]2C(=O)O[C@H]([C@H](C)C[C@@H]2CC[C@@H](OCCO)[C@H](OC)C2)CC(=O)[C@H](C)/C=C(\C)[C@@H](O)[C@@H](OC)C(=O)[C@H](C)C[C@H](C)/C=C/C=C/C=C/1C [Everolimus]	-19	-24.2	-24.2	-22.2	-6.06	5.54	0.73	1.76	3.41	25.7	> 10	> 10
O=C1[C@H](CC[C@H](O)c2ccc(F)cc2)[C@@H](c2ccc(O)cc2)N1c1ccc(F)cc1 [Ezetimibe]	-4.11	3.58	10.6	5.65	0.125	-7.56	2.58	22	25.8	31.9	> 10	> 10
N#CC(C#N)=NNc1ccc(OC(F)(F)F)cc1 [FCCP]	-7.63	1.48	-17.8	-8.82	87.2	-7.79	-5.69	-13.2	-7.17	67	8.13	9.04
O=C(O)CCC(=O)c1ccc(-c2ccccc2)cc1 [Fenbufen]	-12.7	-18.9	-14.3	3.54	-0.929	3.15	8.7	7.49	6.47	10.4	> 10	> 10
CC1=C(/C=C/C(C)=C/C=C/C(C)=C/C(=O)Nc2ccc(O)cc2)C(C)(C)CCC1 [Fenretinide]	-13	-18.5	-15	-14.4	-2.3	23.7	2.62	1.09	9.79	15.3	> 10	> 10
O=c1[nH]cc(F)c(=O)[nH]1 [Fluorouracil]	-23.1	-26	-27.2	1.88	53.9	-8.89	-1.82	8.13	22.2	83.9	6.47	3.81
COc1ccc([C@@H]2OC[C@H]3[C@@H]2CO[C@@H]3c2ccc(O[C@@H]3O[C@H](CO)[C@@H](O)[C@H](O)[C@H]3O)c(OC)c2)cc1OC [Forsythin]	5.1	-3.89	-0.379	2.87	27.7	8.22	24	15.4	-3.75	24.5	> 10	> 10
NC(=O)N/N=C/c1ccc([N+](=O)[O-])o1 [Furacilin]	-10.7	-2.24	-4.15	1.42	5.25	6.06	11.2	22.1	21.4	-6.53	> 10	> 10
CC1(C)OCCn2c1nc1c(N3CCOCC3)nc(-c3cnc(N)nc3)nc12 [GDC0084]	-2.94	9.67	48	77.1	83.3	7.86	5.85	42.9	78.2	76.1	0.327	0.356
CN(C)C1CCN(C(=O)c2ccc(NC(=O)Nc3ccc(-c4nc(N5CCOCC5)nc(N5CCOCC5)n4)cc3)cc2)CC1 [Gedatolisib]	-5.92	17.3	63.7	80.1	82.8	19.9	26.7	68.6	88.3	103	0.187	0.305
O=c1cc(O)c(Cl)c[nH]1 [Gimeracil]	-16.5	-10.4	-7.69	-8.52	5.58	-1.24	-1.82	-11.8	-5.96	-7.24	> 10	> 10
N[C@@H](CCC(=O)N[C@@H](CS)C(=O)NCC(=O)O)C(=O)O [Glutathione]	-21.2	-27.6	-21.1	-16.6	-21.7	8.47	0.941	-7.27	8.72	5.08	> 10	> 10
Cc1nc(Nc2cnn(C3CCNCC3)c2)nc2c1N(C)C(=O)c1cc3ccccc3cc1N2C [HTH-01-015]	-1.49	5.48	-1.32	5.37	62.5	2.33	10.7	23.3	17.9	40.7	7.99	> 10
